From publication PMC8070173, “Phenelzine and Amoxapine Inhibit Tyramine and d-Glucuronic Acid Catabolism in Clinically Significant Salmonella in A Serotype-Independent Manner” (Pathogens, 2021)

Target: T1, β-glucuronidase (GUS) (Escherichia coli, UniProt P05804)
T1 construct: gene uidA; purified GUS encoded by E. coli (G8420-25KU, Sigma-Aldrich)
Assay: colorimetric PNPG hydrolysis (p-nitrophenol release) with purified enzyme; complete inhibition at […]
Type: biochemical

T1 sequence (P05804 whole entry): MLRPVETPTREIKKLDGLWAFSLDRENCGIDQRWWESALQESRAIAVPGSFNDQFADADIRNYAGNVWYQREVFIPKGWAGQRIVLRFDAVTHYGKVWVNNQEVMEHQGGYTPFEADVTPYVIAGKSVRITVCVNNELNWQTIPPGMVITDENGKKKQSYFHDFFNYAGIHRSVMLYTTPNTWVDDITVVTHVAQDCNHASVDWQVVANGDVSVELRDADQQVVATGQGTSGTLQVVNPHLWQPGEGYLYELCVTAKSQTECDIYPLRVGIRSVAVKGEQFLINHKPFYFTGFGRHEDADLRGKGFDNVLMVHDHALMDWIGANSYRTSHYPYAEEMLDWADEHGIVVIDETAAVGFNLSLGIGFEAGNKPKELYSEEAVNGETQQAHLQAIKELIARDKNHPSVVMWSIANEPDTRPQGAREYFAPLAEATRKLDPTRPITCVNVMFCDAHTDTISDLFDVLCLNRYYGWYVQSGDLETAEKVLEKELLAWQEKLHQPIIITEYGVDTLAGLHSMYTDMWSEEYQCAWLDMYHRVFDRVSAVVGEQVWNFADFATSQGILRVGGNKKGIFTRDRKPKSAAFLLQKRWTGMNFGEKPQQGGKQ

Which “colorimetric PNPG hydrolysis (p-nitrophenol release) with purified enzyme; compl” value does the source give for Clc1ccc2c(c1)C(N1CCNCC1)=Nc1ccccc1O2 [amoxapine] here?
Its value is 50 µM.
